Test system: primary rat osteoblasts
Experiment: Proliferation of primary rat osteoblasts (cell counts and [3H]-thymidine incorporation)
Type: cell-based
Conditions: for Mitogenic / proliferative effect on primary osteoblasts (in words): significantly different from control by ANOVA, post hoc Dunnett's test
Method: Osteoblasts were isolated by collagenase digestion from 20-day fetal rat ? viously described by Lowe, et al. (1991). Calvariae were dissected aseptically, and the frontal and parietal bones were stripped of their periosteum. Only the central portions of the bones, free from suture tissue, were collected. The calvariae were treated twice with phosphate buffered saline (PBS) containing 3 mM EDTA (pH 7.4) for 15 minutes at 37° C. in a shaking water bath. After washing once in PBS, the calvariae were treated twice with 3 ml of 1 mg/ml collagenase for 7 minutes at 37° C. After discarding the supernatants from digestions I and II, the calvariae were treated further two times with 3 ml of 2 mg/ml collagenase (30 mins, 37° C.). The supernatants of digestions III and IV were pooled, centrifuged, and the cells washed in Dulbecco's modified Eagle's medium (DME) with 10% fetal calf serum (FCS), suspended in DME/10% FCS, and placed in […] flasks. The cells were incubated under 5% CO2 and 95% air at 37° C. Confluence was reached by 5-6 days, at which time the cells were subcultured. After trypsinization using trypsin-EDTA (0.05%/0.53 mM), the cells were rinsed in minimum essential medium (MEM) with 5% FCS and resuspended in a fresh medium, then seeded at 5×10^4 cells/ml in 24-well plates (0.5 ml cell suspension per well, i.e., 1.4×10^4 cells/cm^2).
Proliferation studies (cell counts and thymidine incorporation) were performed both in actively growing and non-actively growing cell populations. To produce actively growing cells, sub-confluent populations (24 h after subculturing) were placed in fresh MEM containing 1% FCS and a lactoferrin fragment sample (see Table 1 below). To produce non-actively growing cells, sub-confluent populations were placed in serum-free medium with 0.1% bovine serum albumin plus a lactoferrin fragment sample. Cell numbers were analyzed at 6, 24, and 48 hours after the addition of lactoferrin fragment samples. The cell numbers were determined after detaching cells from the wells by exposure to trypsin/EDTA (0.05%/0.53 mM) for approximately 5 minutes at 37° C. Counting was performed in a haemocytometer chamber. [3H]-thymidine incorporation into actively growing and non-actively growing cells was assessed by pulsing the cells with [3H]-thymidine (1 μCi/well) two hours before the end of the incubation. The experiment was terminated at 6, 24, or 48 hours by washing the cells in MEM containing cold thymidine followed by the addition of 10% trichloroacetic acid. The precipitate was washed twice with ethanol:ether (3:1), and the wells desiccated at room temperature. The ? redissolved in 2 M KOH at 55° C. for 30 min, neutralized with 1 M HCl, and an aliquot counted for radioactivity. For both cell counts and thymidine incorporation, each experiment at each time point was performed at least 4 different times using experimental groups consisting of at least 6 wells.
The osteogenic response seen above was compared with that of insulin-like growth factor 1 (IGF-1), a well-recognized osteoblast mitogen. The magnitudes of response of the lactoferrin fragments were similar to IGF-1 in the same osteoblast cell culture system.

[1] = primary rat osteoblasts, Table 1

Sequence	Mitogenic / proliferative effect on primary osteoblasts (in words) (figure legends)	Dose (ug/mL): minimum dose range that stimulates osteoblast proliferation [1] [µg/mL]	Concentration at which osteoblast proliferation is significantly different from control (figure legends, post hoc Dunnett's test P<0.05 or P<0.01) [µg/mL]	Dose (M): minimum dose range that stimulates osteoblast proliferation (primary rat osteoblasts, Table 1, printed as orders of magnitude, e.g. 10^−7/8)
FKCRRWQWRMKKLGA [SEQ ID NO. 17]	mitogenic to primary osteoblasts	0.1 to 10	–	–
FKCRRWQWRMKKLGAPSITCVRRAFA [SEQ ID NO. 14]	mitogenic to primary osteoblasts	0.01 to 1.0	0.01	–
RRWQWRMKKLG [SEQ ID NO. 16]	–	0.1 to 10	–	–
WKLLSKAQEKFGKNKS (listed as Bos taurus) [SEQ ID NO. 33]	mitogenic to primary osteoblasts	100	–	10^−5 M
